Results published in patent publication US6160008A, “Pharmaceutical compositions comprising S-alkylisothiouronium derivatives” (priority 1996, dated 2000).
“Also recorded” adds a separate entry of the source.

Assays:
arterial blood pressure = assay: Influence of single intravenous injection on arterial blood pressure, heart rate and respiratory rate in anesthetized cats (Table 1, FIGS. 1-10); format: in vivo; details: 5 mg/kg i.v.; for Hypertensive activity (increase of SAP): given as "> SAP by"
Procedure: Experiments were performed on 52 anesthetized (intraperitoneally with 45 mg/kg of sodium pentobarbital) cats of both genders with body mass of 2.8-4.2 kg. Arterial pressure was measured by a mercury pressure gauge; measurements were also performed by ECG. Simultaneously, the respiratory frequency was registered. The hypertensive effect was determined as percent increase relative to the initial level of systolic arterial pressure (SAP). The duration of observation was 1-3 hours; the heart rate (HR) was calculated on the basis of ECG.

[1] = tested on: acute arterial hypotension, caused by prazosin; assay: Acute arterial hypotension caused by prazosin (Table 3); format: in vivo, cats; details: prazosin alone 1 mg/kg i.v.
Procedure: It was of interest to study the influence of S-ethylisothiouronium diethylphosphate the in case of hypotension caused by the injection of a known α1-adreno blocker, namely prazosin. Prazosin was injected singly intravenously at a dose of 1 mg/kg.

α1-adrenoreceptors = details: cited from earlier work
[2] = tested on: acute arterial hypotension, caused by the hexamethonium administration; assay: Acute arterial hypotension caused by hexamethonium (Table 5); format: in vivo, cats
Procedure: The influence of S-ethylisothiouronium diethylphosphate on the background of arterial hypotension caused by a known ganglion blocker-hexamethonium has been studied in cats. Hexamethonium was injected intra- venously at a dose of 10 mg/kg. Vagus and schiatic nerve stimulation was carried out by electrical pulsator with the above-threshold rectangular pulse current having a duration of 1 msec, irritation time of 10 sec, and frequency of 20 pulses/sec (peripheral section of the vagus nerve), and frequency of 300 pulses/sec (central end of the schiatic nerve).

[3] = tested on: mice exposed to an oxygen pressure of 3 atm; assay: Survival under oxygen pressure of 3 atm, mice (Table 15); format: in vivo, F1 (CBAx57B1); details: mice, 3 atm, 5 hours
Procedure: Animals were exposed to oxygen under increased pressure in a hyperbaric chamber <<Mana-2≤≤ for treatment of infants above 1 year, which was adjusted for the experiments on animals. The hyperbaric chamber design permitted to create excessive pressure up to 3 atm and to observe animal behavior from outside.
The experiments were performed on males of F1 (CBAx57B1) mice line and on males of Wistar rat line. Animals were placed in the hyperbaric chamber in plastic boxes and the atmospheric air was replaced by oxygen. The period of compression-decompression was 10 minutes. The exposure of the animals to an oxygen pressure of 3 atm during a period of 2 hours caused only some increase in their motion activity. Further staying of rats and mice in those conditions led to a decrease in the motion activity, to asphyxia with short periods of excitement and cramps. The death of some animals was registered after 2.5-3 hours, 50% after 4 hours, and 75% of mice and 100% of rats were dead after 5 hours.
When the influence of Difetur and Etyron was studied, the animals were exposed to an oxygen pressure of 3 atm during 5 hours if not otherwise specified. Preparations were injected 5-10 minutes before the session.

[4] = tested on: increased oxygen pressure; details: cited from earlier work
[5] = listed as S-methylisothiuronium dimethylphosphate
[6] = listed as S-isopropylisothiuronium isopropylphosphite
[7] = listed as S-isopropylisothiuronium metaphosphate
[8] = listed as S-isobutylisothiuronium isobutylphosphate
[9] = listed as S-ethylisothiuronium methylphosphate
[10] = hexamethonium alone 10 mg/kg i.v., 2nd min

Structure (SMILES): CCCCSC(=N)N [S-butylisothiouronium dibutylphosphate, S-butylisothiouronium di-butylphosphate]
- Duration of effect (arterial blood pressure): 1 h
- Hypertensive activity, % (increase relative to the initial level of SAP) (arterial blood pressure): 5.6%
- Hypertensive effect in words (arterial blood pressure): slightly increases arterial blood pressure
- RR (influence on respiratory rate) (arterial blood pressure): No influence
- Time to achieve maximum effect (arterial blood pressure): 30 min
- Hypertensive activity (increase of SAP) (arterial blood pressure): 7 mm Hg
- Duration of effect (arterial blood pressure; listed as S-butylisothiuronium dibutylphosphate): up to 1 hour

Structure (SMILES): CSC(=N)N [S-methylisothiouronium dimethylphosphate]
- Duration of effect (arterial blood pressure): 1.5 h
- Hypertensive activity, % (increase relative to the initial level of SAP) (arterial blood pressure): ~30%
- Hypertensive activity (increase of SAP) (arterial blood pressure; [5]): 27.5 mm Hg
- Duration of effect (arterial blood pressure; [5]): 1.5 h
- Hypertensive activity, % (increase relative to the initial level of SAP) (arterial blood pressure; [5]): 20.8%

Structure (SMILES): COc1cc2nc(N3CCN(C(=O)c4ccco4)CC3)nc(N)c2cc1OC [prazosin, reference compound]
- AP after prazosin ([1]; 5th min): 106.3 ± 2.4 mm Hg
- HF after prazosin ([1]; 5th min): 156.8 ± 9.0 per min.
- Respiratory contraction frequency after prazosin ([1]; 5th min): 13.6 ± 2.9 min⁻¹
- AP decrease ([1]; 5th minute): 51 mm Hg

Structure (SMILES): CC(C)SC(=N)N [S-isopropylisothiouronium isopropylphosphite]
- Duration of effect (arterial blood pressure): at least 2 hour
- Hypertensive activity, % (increase relative to the initial level of SAP) (arterial blood pressure): ~30%
- Hypertensive effect in words (arterial blood pressure): one of the most active substances
- Influence on HR (arterial blood pressure): Transient bradycardia
- RR (influence on respiratory rate) (arterial blood pressure): does not influence RR
- Time to achieve maximum effect (arterial blood pressure): second minute
- Hypertensive activity (increase of SAP) (arterial blood pressure; [6]): 40 mm Hg
- Duration of effect (arterial blood pressure; [6]): 2 h
- Hypertensive activity, % (increase relative to the initial level of SAP) (arterial blood pressure; [6]): 28.8%
- Influence on HR (arterial blood pressure; [6]): Bradycardia
- RR (influence on respiratory rate) (arterial blood pressure; [6]): No influence
- Time to achieve maximum effect (arterial blood pressure; [6]): 2 min

Structure (SMILES): CC(C)SC(=N)N [S-isopropylisothiouronium metaphosphate]
- Duration of effect (arterial blood pressure): ≥ 2 h
- Hypertensive effect in words (arterial blood pressure): slowly increases SAP
- RR (influence on respiratory rate) (arterial blood pressure): does not influence RR
- Time to achieve maximum effect (arterial blood pressure): 15 min
- Hypertensive activity (increase of SAP) (arterial blood pressure; [7]): 27 mm Hg
- Duration of effect (arterial blood pressure; [7]): 2 h
- Hypertensive activity, % (increase relative to the initial level of SAP) (arterial blood pressure; [7]): 20.3%
- Influence on HR (arterial blood pressure; [7]): Bradycardia
- RR (influence on respiratory rate) (arterial blood pressure; [7]): Increases
- Time to achieve maximum effect (arterial blood pressure; [7]): 15 min

Structure (SMILES): CC(C)CSC(=N)N [S-isobutylisothiouronium isobutylphosphite]
- Duration of effect (arterial blood pressure): about 2 hour
- Hypertensive activity, % (increase relative to the initial level of SAP) (arterial blood pressure): 14.8%
- Hypertensive effect in words (arterial blood pressure): moderate hypertensive effect
- Influence on HR (arterial blood pressure): increasing HR
- RR (influence on respiratory rate) (arterial blood pressure): increasing HR and RR
- Time to achieve maximum effect (arterial blood pressure): 2 min
- Hypertensive activity (increase of SAP) (arterial blood pressure): 22.6 mm Hg
- Duration of effect (arterial blood pressure; [8]): 2 h
- RR (influence on respiratory rate) (arterial blood pressure; [8]): Increases

Structure (SMILES): CNCC(O)c1cccc(O)c1.Cl (centres unmarked) [Mezaton, 1-(m-hydroxyphenyl)-2-methylaminoethanol hydrochloride]
- Pharmacological action in words (α1-adrenoreceptors; in vivo, hydrochloride): selectively stimulates α1-adrenoreceptors; also recorded: practically does not have cardiostimulating effect
- Duration of anti-hypotensive effect (α1-adrenoreceptors; single intravascular injection): approximately 20 minutes

Structure (SMILES): CCSC(=N)N [S-ethylisothiouronium metaphosphate]
- Duration of effect (arterial blood pressure): 1.5 h
- Hypertensive activity, % (increase relative to the initial level of SAP) (arterial blood pressure): 15%
- RR (influence on respiratory rate) (arterial blood pressure): does not influence RR
- Time to achieve maximum effect (arterial blood pressure): 2 min
- Hypertensive activity (increase of SAP) (arterial blood pressure): 25 mm Hg
- Hypertensive activity (increase of SAP) (arterial blood pressure; [9]): 25 mm Hg
- Duration of effect (arterial blood pressure; [9]): up to 1 hour
- Hypertensive activity, % (increase relative to the initial level of SAP) (arterial blood pressure; [9]): 14.8%
- Influence on HR (arterial blood pressure; [9]): Bradycardia
- RR (influence on respiratory rate) (arterial blood pressure; [9]): No influence

Structure (SMILES): C[N+](C)(C)CCCCCC[N+](C)(C)C [hexamethonium, reference compound]
- AP after hexonium injection [2, 10]: 91.0 ± 10.0 mm Hg
- HF after hexonium injection [2, 10]: 137.6 ± 13.4 per min.
- AP decrease ([2]; hexamethonium alone, 2 minutes): 46%

Structure (SMILES): Br.CCSC(=N)N [Etyron, S-ethylisothiouronium bromide, reference compound]
- Number of survived animals ([3]; 10 mg/kg): 70%
- Number of survived animals ([3]; 20 mg/kg): 50%
- Protective activity in words [4]: protective activity under increased oxygen pressure
